The assay concerns BDF1 mice, colon carcinoma 38 sc, T/C %. The assay can be described thus: NCI In Vivo Anticancer Drug Screen. Data for tumor model Colon Carcinoma 38 (subcutaneous) in B6D2F1 (BDF1) mice. In short, it runs like this:
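T/C readout: treated group (T) measurement over vehicle control group (C) measurement. Endpoint is survival or tumor size in mice bearing a transplanted tumor.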

Where “and” joins values, the source holds several entries; their conditions need not be identical. Identical values can stand only once. Results filed as inconclusive are left out.

This passage reports T/C results from PubChem BioAssay AID212 (DTP/NCI, 2004).

Regarding `CS(=O)(=O)[O-].CS(=O)(=O)[O-].NC1CCCCC1N.[Pt+4]` (centres undefined), the T/C (endpoint: median tumor weight (est.), dose: 0.31 mg/kg/injection, schedule: Q07DX002 (ip), vehicle: dextrose, higher = larger tumour) is 71 % of control; the T/C (endpoint: median tumor weight (est.), dose: 0.62 mg/kg/injection, schedule: Q07DX002 (ip), vehicle: dextrose, higher = larger tumour) was 58 % of control and 82 % of control; the T/C (endpoint: median tumor weight (est.), dose: 1.25 mg/kg/injection, schedule: Q07DX002 (ip), vehicle: dextrose, higher = larger tumour) was 54 % of control and 56 % of control; the T/C (endpoint: median tumor weight (est.), dose: 2.5 mg/kg/injection, schedule: Q07DX002 (ip), vehicle: dextrose, higher = larger tumour) was 35 % of control and 45 % of control; the T/C (endpoint: median tumor weight (est.), dose: 5.0 mg/kg/injection, schedule: Q07DX002 (ip), vehicle: dextrose, higher = larger tumour) is 39 % of control; the T/C (endpoint: median tumor weight (est.), dose: 10.0 mg/kg/injection, schedule: Q07DX002 (ip), vehicle: dextrose, higher = larger tumour) was 19 % of control.
On to `CCOC(=O)/N=[N+](\[O-])c1ccccc1`, for which the T/C (endpoint: median tumor weight (est.), dose: 6.25 mg/kg/injection, schedule: Q07DX002 (ip), vehicle: saline with Tween-80, higher = larger tumour) is 49 % of control and the T/C (endpoint: median tumor weight (est.), dose: 12.5 mg/kg/injection, schedule: Q07DX002 (ip), vehicle: saline with Tween-80, higher = larger tumour) is 71 % of control.
As for `CC(=O)N(C)c1ccc(Nc2cc(C)[nH]c3ccc4ncnc4c23)cc1`, the T/C is 118 % of control and 104 % of control (endpoint: median tumor weight (est.), dose: 12.5 mg/kg/injection, schedule: Q07DX002 (ip), vehicle: saline, higher = larger tumour); 74 % of control and 80 % of control (endpoint: median tumor weight (est.), dose: 25.0 mg/kg/injection, schedule: Q07DX002 (ip), vehicle: saline, higher = larger tumour).
`CSc1nc(=O)[nH]nc1SCc1ccccc1`: the T/C runs as follows: (endpoint: median tumor weight (est.), dose: 25.0 mg/kg/injection, schedule: Q07DX002 (ip), vehicle: Klucel (hydroxypropylcellulose) (HPC), higher = larger tumour) 151 % of control and 169 % of control; (endpoint: median tumor weight (est.), dose: 400.0 mg/kg/injection, schedule: Q07DX002 (ip), vehicle: Klucel (hydroxypropylcellulose) (HPC), higher = larger tumour) 65 % of control.
For the molecule `COC1=C2C[C@@H](C)C[C@@H](OC)[C@@H](O)[C@H](C)/C=C(\C)[C@@H](OC(N)=O)[C@H](OC)/C=C\C=C(/C)C(=O)NC(=CC1=O)C2=O`, the T/C (endpoint: median tumor weight (est.), dose: 0.25 mg/kg/injection, schedule: Q07DX002 (ip), vehicle: saline with Tween-80, higher = larger tumour) is 92 % of control and 100 % of control; the T/C (endpoint: median tumor weight (est.), dose: 0.5 mg/kg/injection, schedule: Q07DX002 (ip), vehicle: saline with Tween-80, higher = larger tumour) was 86 % of control; the T/C (endpoint: median tumor weight (est.), dose: 1.0 mg/kg/injection, schedule: Q07DX002 (ip), vehicle: saline with Tween-80, higher = larger tumour) is 108 % of control; the T/C (endpoint: median tumor weight (est.), dose: 2.0 mg/kg/injection, schedule: Q07DX002 (ip), vehicle: saline with Tween-80, higher = larger tumour) is 94 % of control; the T/C (endpoint: median tumor weight (est.), dose: 4.0 mg/kg/injection, schedule: Q07DX002 (ip), vehicle: saline with Tween-80, higher = larger tumour) is 98 % of control; the T/C (endpoint: median tumor weight (est.), dose: 8.0 mg/kg/injection, schedule: Q07DX002 (ip), vehicle: saline with Tween-80, higher = larger tumour) is 92 % of control and 94 % of control.
`CN1c2c(nc(N)[nH]c2=O)NCC1CCNc1ccc(C(=O)NC(CCC(=O)O)C(=O)O)cc1` (centres undefined): the T/C by setting is: (endpoint: median tumor weight (est.), dose: 50.0 mg/kg/injection, schedule: Q07DX003 (ip), vehicle: saline, higher = larger tumour) 155 % of control; (endpoint: median tumor weight (est.), dose: 100.0 mg/kg/injection, schedule: Q07DX003 (ip), vehicle: saline, higher = larger tumour) 64 % of control; (endpoint: median tumor weight (est.), dose: 200.0 mg/kg/injection, schedule: Q07DX003 (ip), vehicle: saline, higher = larger tumour) 99 % of control; (endpoint: median tumor weight (est.), dose: 400.0 mg/kg/injection, schedule: Q07DX003 (ip), vehicle: saline, higher = larger tumour) 98 % of control; (endpoint: median tumor weight (est.), dose: 800.0 mg/kg/injection, schedule: Q07DX003 (ip), vehicle: saline, higher = larger tumour) 92 % of control.
In the case of `Cc1ccc(N)c(N)c1`, the T/C (endpoint: median tumor weight (est.), dose: 25.0 mg/kg/injection, schedule: Q07DX002 (ip), vehicle: saline with Tween-80, higher = larger tumour) is 80 % of control; the T/C (endpoint: median tumor weight (est.), dose: 50.0 mg/kg/injection, schedule: Q07DX002 (ip), vehicle: saline with Tween-80, higher = larger tumour) is 89 % of control; the T/C (endpoint: median tumor weight (est.), dose: 100.0 mg/kg/injection, schedule: Q07DX002 (ip), vehicle: saline with Tween-80, higher = larger tumour) was 101 % of control; the T/C (endpoint: median tumor weight (est.), dose: 200.0 mg/kg/injection, schedule: Q07DX002 (ip), vehicle: saline with Tween-80, higher = larger tumour) is 114 % of control; the T/C (endpoint: median tumor weight (est.), dose: 400.0 mg/kg/injection, schedule: Q07DX002 (ip), vehicle: saline with Tween-80, higher = larger tumour) was 96 % of control.
Consider `CCCC[C@H]1C(=O)O[C@H](C)[C@H](NC(=O)c2cccc(NC=O)c2O)C(=O)O[C@@H](C)[C@@H]1OC(=O)CC(C)C`, for which the T/C is 177 % of control (endpoint: median tumor weight (est.), dose: 0.5 mg/kg/injection, schedule: Q07DX002 (ip), vehicle: Klucel (hydroxypropylcellulose) (HPC), higher = larger tumour) and 224 % of control (endpoint: median tumor weight (est.), dose: 1.0 mg/kg/injection, schedule: Q07DX002 (ip), vehicle: Klucel (hydroxypropylcellulose) (HPC), higher = larger tumour).
For the molecule `NC(=O)c1[nH]nc(C2OC(CO)C(O)C2O)c1O` (centres undefined), the T/C was 77 % of control and 79 % of control (endpoint: median survival time, dose: 0.75 mg/kg/injection, schedule: Q04DX004 (ip), vehicle: saline, higher = longer survival); 90 % of control and 105 % of control (endpoint: median survival time, dose: 1.5 mg/kg/injection, schedule: Q04DX004 (ip), vehicle: saline, higher = longer survival); 63 % of control and 65 % of control (endpoint: median survival time, dose: 3.0 mg/kg/injection, schedule: Q04DX004 (ip), vehicle: saline, higher = longer survival); 59 % of control (endpoint: median survival time, dose: 6.0 mg/kg/injection, schedule: Q04DX004 (ip), vehicle: saline, higher = longer survival); 43 % of control (endpoint: median survival time, dose: 12.0 mg/kg/injection, schedule: Q04DX004 (ip), vehicle: saline, higher = longer survival); 117 % of control (endpoint: median tumor weight (est.), dose: 0.31 mg/kg/injection, schedule: Q07DX003 (ip), vehicle: saline, higher = larger tumour). Also, the T/C reads like this: (endpoint: median tumor weight (est.), dose: 0.62 mg/kg/injection, schedule: Q07DX003 (ip), vehicle: saline, higher = larger tumour) 90 % of control; (endpoint: median tumor weight (est.), dose: 1.25 mg/kg/injection, schedule: Q07DX003 (ip), vehicle: saline, higher = larger tumour) 97 % of control; (endpoint: median tumor weight (est.), dose: 4.32 mg/kg/injection, schedule: Q04DX004 (ip), vehicle: saline, higher = larger tumour) 81 % of control; (endpoint: median tumor weight (est.), dose: 5.0 mg/kg/injection, schedule: Q07DX002 (ip), vehicle: saline, higher = larger tumour) 100 % of control; (endpoint: median tumor weight (est.), dose: 5.0 mg/kg/injection, schedule: Q07DX003 (ip), vehicle: saline, higher = larger tumour) 93 % of control; (endpoint: median tumor weight (est.), dose: 7.2 mg/kg/injection, schedule: Q04DX004 (ip), vehicle: saline, higher = larger tumour) 61 % of control. In addition, the T/C is 86 % of control (endpoint: median tumor weight (est.), dose: 10.0 mg/kg/injection, schedule: Q07DX002 (ip), vehicle: saline, higher = larger tumour); 82 % of control (endpoint: median tumor weight (est.), dose: 10.0 mg/kg/injection, schedule: Q07DX003 (ip), vehicle: saline, higher = larger tumour); 17 % of control (endpoint: median tumor weight (est.), dose: 12.0 mg/kg/injection, schedule: Q04DX004 (ip), vehicle: saline, higher = larger tumour).
Turning to `O=C(NP(=O)(N1CC1)N1CC1)c1cc(I)ccc1I`, the T/C (endpoint: median tumor weight (est.), dose: 8.0 mg/kg/injection, schedule: Q07DX002 (ip), vehicle: Klucel (hydroxypropylcellulose) (HPC), higher = larger tumour) was 105 % of control; the T/C (endpoint: median tumor weight (est.), dose: 16.0 mg/kg/injection, schedule: Q07DX002 (ip), vehicle: Klucel (hydroxypropylcellulose) (HPC), higher = larger tumour) is 47 % of control; the T/C (endpoint: median tumor weight (est.), dose: 32.0 mg/kg/injection, schedule: Q07DX002 (ip), vehicle: Klucel (hydroxypropylcellulose) (HPC), higher = larger tumour) is 92 % of control; the T/C (endpoint: median tumor weight (est.), dose: 64.0 mg/kg/injection, schedule: Q07DX002 (ip), vehicle: Klucel (hydroxypropylcellulose) (HPC), higher = larger tumour) is 55 % of control; the T/C (endpoint: median tumor weight (est.), dose: 128.0 mg/kg/injection, schedule: Q07DX002 (ip), vehicle: Klucel (hydroxypropylcellulose) (HPC), higher = larger tumour) is 22 % of control; the T/C (endpoint: median tumor weight (est.), dose: 256.0 mg/kg/injection, schedule: Q07DX002 (ip), vehicle: Klucel (hydroxypropylcellulose) (HPC), higher = larger tumour) was 31 % of control.
As to `COc1ccc(-c2csc(=[N+]3CCCCC3)s2)cc1`, the T/C runs as follows: (endpoint: median tumor weight (est.), dose: 3.13 mg/kg/injection, schedule: Q07DX002 (ip), vehicle: water, higher = larger tumour) 107 % of control; (endpoint: median tumor weight (est.), dose: 6.25 mg/kg/injection, schedule: Q07DX002 (ip), vehicle: water, higher = larger tumour) 105 % of control; (endpoint: median tumor weight (est.), dose: 12.5 mg/kg/injection, schedule: Q07DX002 (ip), vehicle: water, higher = larger tumour) 116 % of control; (endpoint: median tumor weight (est.), dose: 25.0 mg/kg/injection, schedule: Q07DX002 (ip), vehicle: water, higher = larger tumour) 123 % of control; (endpoint: median tumor weight (est.), dose: 50.0 mg/kg/injection, schedule: Q07DX002 (ip), vehicle: water, higher = larger tumour) 121 % of control.
As to `O=C1OC(C(O)CO)C(O)=C1O` (centres undefined), the T/C runs as follows: (endpoint: median tumor weight (est.), dose: 50.0 mg/kg/injection, schedule: Q07DX002 (ip), vehicle: saline, higher = larger tumour) 43 % of control; (endpoint: median tumor weight (est.), dose: 100.0 mg/kg/injection, schedule: Q07DX002 (ip), vehicle: saline, higher = larger tumour) 100 % of control; (endpoint: median tumor weight (est.), dose: 800.0 mg/kg/injection, schedule: Q07DX002 (ip), vehicle: saline, higher = larger tumour) 83 % of control; (endpoint: median tumor weight (est.), dose: 1600.0 mg/kg/injection, schedule: Q07DX002 (ip), vehicle: saline, higher = larger tumour) 100 % of control.
Take `CN(C)C(=O)c1cccc(COc2ccc(N3C(N)=NC(N)=NC3(C)C)cc2Cl)c1`: the T/C runs as follows: (endpoint: median tumor weight (est.), dose: 32.0 mg/kg/injection, schedule: Q07DX003 (ip), vehicle: saline, higher = larger tumour) 87 % of control and 98 % of control; (endpoint: median tumor weight (est.), dose: 64.0 mg/kg/injection, schedule: Q07DX003 (ip), vehicle: saline, higher = larger tumour) 50 % of control; (endpoint: median tumor weight (est.), dose: 128.0 mg/kg/injection, schedule: Q07DX003 (ip), vehicle: saline, higher = larger tumour) 66 % of control; (endpoint: median tumor weight (est.), dose: 256.0 mg/kg/injection, schedule: Q07DX003 (ip), vehicle: saline, higher = larger tumour) 59 % of control.
